# Source: patent US8952033B2, “4-anilinofuro[2,3-b]quinoline derivatives, their preparation processes, and pharmaceutical compositions comprising the same” (Kaohsiung Medical University, priority 2011, dated 2015)
# Experiments:
# [1] = tested on: SKHep-1 (hepatocellular carcinoma cell); test: Preferential antiproliferative activity, SKHep; type: cell-based
# Protocol: (§1) Determination of GI50 of compounds 13a, 13c, 14a, 14c, 15a, 16a was conducted substantially according to the method as described in the preceding section A entitled “Evaluation of antiproliferative activity”, except that the normal cell line MRC-5 was also utilized, and that camptothecin and daunorubicin were tested instead of compounds 1, 2, 3. The concentration of the respective test compound, which can reduce absorbance by 50% (compared with DMSO), is regarded as GI50, and can be determined via dose-response curves. Determination of GI50 was conducted thrice for each test compound. GI50 is expressed as mean±SD.
# (§2) SI stands for selectivity index and was calculated by substituting GI50 into the following formula: D=E/F (2) where • D=SI • E=GI50 of the respective test compound for cells of the normal cell line • F=GI50 of the respective test compound for cells of the cancer cell line The experimental results are summarized in Table 4. […]
# [2] = Determination of solubility in water; type: physicochemical
# Protocol: Determination of solubility in water was conducted substantially according to the method as described in Vougogiannopoulou, K. et al. (2008), J. Med. Chem., 51:6421-6431. An excess amount of the respective test compound was added into water, followed by sonication for 5 minutes. The resultant mixture was stirred at ambient temperature (25±0.1° C.) overnight. Centrifugation at 4000 rpm and 25° C. was conducted for 5 minutes. Absorbance of the sample of the respective test compound was measured at 315-420 nm using a UV-VIS spectrophotometer (JASCO UV-Visible V570). For each test compound, a standard curve was generated by plotting concentrations of standard solutions and the corresponding absorbances. The absorbance of the sample of each test compound was then converted to solubility in water (μg/mL) using the corresponding standard curve.
# [3] = tested on: PC-3 (human prostate cancer cell); test: Preferential antiproliferative activity, PC-3; type: cell-based
# Protocol: as §1, §2
# [4] = tested on: NCI-H1299 (non-small cell lung carcinoma cell); test: Preferential antiproliferative activity, NCI-H1299; type: cell-based
# Protocol: as §1, §2
# NCI-H460 cells = test: In vivo inhibition of lung cancer cells, NCI-H460 tumor in nude mice; parameters: species or system Balb/C athymic nude mice; details: for Survival rate: Day 80 (control all dead)
# Protocol: 10^6 NCI-H460 cells were mixed evenly with a proper amount of Matrigel (BD Biosciences). The resultant mixture was injected subcutaneously into each of the nude mice on a dorsal flank close to an upper portion of a hind leg.
# The nude mice bearing a tumor were randomly divided into two groups. The first group (n=14) of the nude mice was used to evaluate the effect of compound 13a after intraperitoneal injection, and was further divided into three subgroups including 10 mg/kg group (n=4), 20 mg/kg group (n=6), and a control group (n=4). Compound 13a (in DMSO/Tween 80/PBS (1/1/8, v/v/v)) was administered to the nude mice in 10 mg/kg group and 20 mg/kg group respectively at a dose of 10 mg/kg and a dose of 20 mg/kg via intraperitoneal injection, and 5% dextrose was administered to the nude mice in the control group at the same dosing volume as compound 13a via intraperitoneal injection.
# The second group (n=28) of the nude mice was used to evaluate the effect of compound 13a after oral administration, and was further divided into three subgroups including 60 mg/kg group (n=10), 120 mg/kg group (n=10), and a control group (n=8). Compound 13a (in a normal saline solution containing 1% DMSO, 1.4% Tween 80, and 1% sodium carboxymethyl cellulose (Sigma), and serving as a vehicle) was administered to the nude mice in 60 mg/kg group and 120 mg/kg group respectively at a dose of 60 mg/kg and a dose of 120 mg/kg via tube feeding (0.22-0.26 mL of the mixture of compound 13a and the vehicle/nude mouse), and the vehicle was administered to the mice in the control group at a dose of 10 mL/kg via tube feeding.
# Administration was conducted once daily for 6 consecutive days. For the first group of the nude mice, the size of the tumor on the dorsal flank was measured with calipers every 9 days for 100 consecutive days. For the second group of the nude mice, the survival rate was calculated every 10 days starting on Day 1 (i.e., the day of the […] administration) for 80 consecutive days, and the size of the tumor on the dorsal flank was measured with the calipers every 3 days for 32 consecutive days.
# [5] = tested on: AGS (human stomach adenocarcinoma cell); test: Preferential antiproliferative activity, AGS; type: cell-based
# Protocol: as §1, §2
# [6] = tested on: CL1-5 (metastatic lung adenocarcinoma cell); test: Preferential antiproliferative activity, CL1-5; type: cell-based
# Protocol: as §1, §2
# [7] = tested on: BT483 (human breast carcinoma cell); test: Preferential antiproliferative activity, BT483; type: cell-based
# Protocol: as §1, §2
# [8] = tested on: HeLa (human cervical epithelioid carcinoma cell); test: Preferential antiproliferative activity, HeLa; type: cell-based
# Protocol: as §1, §2
# [9] = tested on: MCF-7 (breast cancer cell); test: MTT antiproliferative assay (cell growth %, GI50), MCF-7; type: cell-based
# Procedure, shortened: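 Cells exposed to compounds in DMSO or vehicle for 48 hours; MTT (2 mg/mL) added before and after treatment for 2 hours, formazan dissolved in DMSO and OD570 read. GI50 from three determinations, reported as mean±SD.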
structure (smiles),measurement,setting,value
"C/C(=N\OCCN)c1ccc(Nc2c3ccccc3nc3occc23)cc1 [Compound 13a, (E)-1-(4-(furo[2,3-b]quinolin-4-ylamino)phenyl)ethanone O-2-aminoethyl oxime]",GI50,"[1]; Homo sapiens, SK-HEP1, mean±SD",13.1 ± 3.75 µM
same,SI SKHep,[1]; versus MRC-5,3.26
same,Solubility in water,"[2]; 25±0.1° C., stirred overnight, UV-VIS",63 µg/mL
same,Solubility in water relative to compound 2,[2]; fold versus compound 2,about six times higher
same,GI50,"[3]; Homo sapiens, mean±SD",11.8 ± 0.49 µM
same,SI PC-3,[3]; versus MRC-5,3.62
same,GI50,"[4]; Homo sapiens, NCI-H1299, mean±SD",3.08 ± 1.12 µM
same,SI NCI-H1299,[4]; versus MRC-5,13.91
same,Size of the tumor,"NCI-H460 cells; intraperitoneal injection, 10 mg/kg and 20 mg/kg once daily for 6 days, versus control",generally grew more slowly with time
same,Size of the tumor,"NCI-H460 cells; oral administration, 60 mg/kg and 120 mg/kg once daily for 6 days, versus control",generally grew more slowly with time
same,Survival rate,"NCI-H460 cells; oral administration, 60 mg/kg group",50%
same,Survival rate,"NCI-H460 cells; oral administration, 120 mg/kg group",50%
same,Size of the tumor,"NCI-H460 cells; oral administration, 120 mg/kg once daily for 6 days",diminished in size after Day 16
same,GI50,"[5]; Homo sapiens, mean±SD",13.77 ± 0.04 µM
same,SI AGS,[5]; versus MRC-5,3.09
same,GI50,"[6]; CL1-5, result based on a single trial",5.18 µM
same,SI CL1-5,[6]; versus MRC-5,8.27
same,GI50,"[7]; Homo sapiens, BT-483, mean±SD",10.2 ± 0.9 µM
same,SI BT483,[7]; versus MRC-5,4.22
same,GI50,"[8]; Homo sapiens, HeLa, mean±SD",8.31 ± 0.6 µM
same,SI HeLa,[8]; versus MRC-5,5.16
same,SI MCF-7,[9]; GI50 MRC-5 / GI50 MCF-7,4.59
same,activity at 4000 µg/mL,"[9]; Homo sapiens, MCF7, 4 mg/ml, 48 hours, MTT",66%
same,activity at 20000 µg/mL,"[9]; Homo sapiens, MCF7, 20 mg/ml, 48 hours, MTT",-1%
same,GI50,"[9]; Homo sapiens, MCF7, mean±SD, read-out: GI50 MCF-7",9.34 ± 0.92 µM
